Laboratory results as given in patent publication US12624042B2, “Compound for targeted degradation of BTK and anti-tumour use thereof” (SHANGHAI MEIZER PHARMACEUTICALS CO., LTD., priority 2020, dated 2026).
pIC50: −log10 of the molar value. Where two headings read alike, the source gives them in different places.

Key:
OCI-LY10 tumor = test: Anti-tumor effect in mouse OCI-LY10 tumor model; type: in vivo; details: SCID mice, OCI-LY10 subcutaneous, oral 100 mg/kg, twice a day, 14 days; rate=[1−(Day14−Day0)/Day0]*100%
Procedure: OCI-LY10 cells were cultured in RPMI-1640 medium containing 10% fetal bovine serum (FBS). Cells were cultured at 37° C. in a 5% CO2 incubator.
Cell inoculation method to establish tumor SCID mouse subcutaneous transplantation model: tumor cells in logarithmic growth phase were collected, counted and resuspended in RPMI-1640 medium. Matrigel was added at 1:1, and the concentration of cell suspension was adjusted to 4×10^7 cells/ml. Inoculate tumor cells subcutaneously on the right back of SCID mice with a 1 ml syringe, 4×10^6 cells/0.1 ml/mouse
When the average volume of animal tumors is about 140 mm^3, animals with too large tumor, too small tumor, or have irregular tumor shapes were eliminated. The tumor-bearing mice with tumor volumes ranging from 101.34 to 209.86 mm 3 were selected, and were divided into groups by random block method, respectively as model group, compound group (oral 100 mg/kg, twice a day), 7 mice in each group. The day of grouping was Day 0, and administration was started according to the body weight of the animals.
After 14 days of administration, the tumor volume was measured, and the tumor inhibition rate was calculated, and the calculation formula was as follows: Tumor inhibition rate=[1−(Day14 tumor volume−Day0 administration tumor volume)/Day0 administration tumor volume]*100%

BTK protein = target: T1, BTK protein (Homo sapiens, UniProt Q06187); test: Western blot assay for degradation of BTK protein in Jeko-1 cells; type: cell-based; details: 24 hours of drug treatment, GAPDH internal reference
T1 construct: endogenous in cells; host or cells: Jeko-1
Procedure: (§1) The Jeko-1 cell line was cultured in RPMI-1640 medium containing 20% fetal bovine serum in an incubator at 37° C., 5% CO2, and saturated humidity. After the cells grew to the logarithmic growth phase, 5×10^6 cells per well were seeded in a 6-well culture plate, and a DMSO control group and a compound test group were set.
(§2) After 24 hours of drug treatment, the cells were collected, added pre-cooled cell lysate, and lysed on ice for 45 min. After the cells were completely lysed, they were centrifuged, and the supernatant was taken and stored in an ice bath. The protein concentration was determined by Bradford protein concentration assay kit (detergent compatible type), and protein samples were prepared. After the proteins were separated by SDS-PAGE gel electrophoresis, they were transferred to PVDF membranes by wet method and blocked with 5% BSA solution at room temperature for 1 h. Diluted rabbit anti-human BTK and GAPDH were added according to the experimental requirements, and incubated overnight at 4° C. After washing the membrane with TBST, horseradish peroxidase-labeled goat anti-rabbit IgG secondary antibody dilution was added and incubated at room temperature for 1 h. After washing the membrane with TBST, the ECL luminescent solution was added in the gel imager for development and imaging. […]

[1] = Caco-2 membrane permeability and efflux test; type: in vitro ADME; details: human; for Papp A→B at 90 min: Caco-2, A-B; for Papp A→B at 90 min / Papp B→A at 90 min: Caco-2 monolayer, 37° C.; for Papp B→A at 90 min: Caco-2, B-A; for efflux ratio at 90 min: Caco-2, read-out: Papp(B-A)/Papp(A-B)
Procedure: • 1) Caco-2 cells in the logarithmic growth phase were taken, digested and centrifuged and the cell concentration was adjusted to 4×10^5 cells/mL with MEM complete medium. • 2) 0.5 mL of cell suspension was added to the apical side (AP side) and 1.5 mL MEM cell complete medium was added to the basal side (BL side) of the Transwell plate, respectively. • 3) Culture in a cell constant temperature incubator, change the culture medium every two days, and change the medium every day after one week of culture. • 4) After about 21 days, the resistance value of the formed continuous monolayer film is greater than 100 Ω·cm^2, and the transport experiment is carried out within 3-5 days. • 5) The test compound solution was added to the AP side as the donor solution (Donor), and 1.5 mL of the receiver solution (Receiver) was added to the basal side (BL side). After the culture plate was placed in an incubator at 37° C. for 90 minutes, the AP side was separated from the BL side to terminate the reaction. • 6) Donor or Receiver samples were diluted with 0.4% DMSO in HBSS, and then mixed with acetonitrile. The LC conditions were as follows: mobile phase A: H2O—0.025% FA-1 mM NH4OAC, B: MeOH-0.025% FA-1 mM NH4OAC. Column: ACQUITY UPLC BEH_C18 ([…], 1.7 μm). Flow rate 0.60 mL/min. Gradient: 0.2 min 2% B, 0.6 min 98% B, 1.3 min 98% B, 1.31 min 2% B, 1.8 min stop. • 7) Calculation formula: Papp=(VA/(area×time))×([drug]receiver/([drug]donor)×dilution factor)
where VA is the volume in the receiving chamber, area is the surface area of the membrane, and time is the total transport time in seconds.
Drug molecules cross the single cell layer or via the cell gap from the apical side (AP side) to the basolateral side (BL side) of the Caco-2 monolayer are A to B, and vice versa are B to A. The efflux ratio: Papp(B−A)/Papp(A−B).

[2] = test system: TMD8 (BTK-C481S) mutant cells; test: Proliferation inhibition of TMD8 (BTK-C481S) mutant cells (CCK-8); type: cell-based; details: Homo sapiens
Procedure: Cell plating: TMD8 (BTK-C481S) mutant cells in the logarithmic growth phase were taken, centrifuged, and an appropriate amount of complete medium was added to obtain a single-cell suspension. Cell counting was carried out with a hemocytometer, and a cell suspension of 1.5×10^5 cells/mL was prepared. 100 μL of cell suspension per well was inoculated in a 96-well culture plate, and cultured in a CO2 cell incubator for 24 hours.
The plates were shaken well, placed in a CO2 cell incubator, and continued to incubate for 72h.
CCK-8 detection: 72 hours after administration, 10% CCK-8 solution was added to each well. The plates were placed in a CO2 cell incubator, and incubated for 1-4 hours. The absorbance of each well was measured at 450 nm using a microplate reader.

BTK-C481S mutant protein = target: T2, BTK-C481S mutant protein (Homo sapiens, UniProt Q06187, C481S); test: Western blot assay for degradation of BTK-C481S mutant protein in TMD8 (BTK-C481S) cells; type: cell-based; details: 24 hours of drug treatment, GAPDH internal reference
T2 construct: The TMD8 (BTK-C481S) mutant cell line was cultured in RPMI-1640 medium; endogenous in cells; host or cells: TMD8 (BTK-C481S) mutant cell line
Procedure: as §1, with “TMD8 (BTK-C481S) mutant” for “Jeko-1”
as §2

[3] = Sample-01, read-out: Papp Sample-01
[4] = Sample-02, read-out: Papp Sample-02
[5] = mean of two samples, read-out: Papp Mean
[6] = TMD8 (BTK-C481S) mutant cells, 72h, CCK-8, read-out: IC50

T1 sequence (Q06187 whole entry): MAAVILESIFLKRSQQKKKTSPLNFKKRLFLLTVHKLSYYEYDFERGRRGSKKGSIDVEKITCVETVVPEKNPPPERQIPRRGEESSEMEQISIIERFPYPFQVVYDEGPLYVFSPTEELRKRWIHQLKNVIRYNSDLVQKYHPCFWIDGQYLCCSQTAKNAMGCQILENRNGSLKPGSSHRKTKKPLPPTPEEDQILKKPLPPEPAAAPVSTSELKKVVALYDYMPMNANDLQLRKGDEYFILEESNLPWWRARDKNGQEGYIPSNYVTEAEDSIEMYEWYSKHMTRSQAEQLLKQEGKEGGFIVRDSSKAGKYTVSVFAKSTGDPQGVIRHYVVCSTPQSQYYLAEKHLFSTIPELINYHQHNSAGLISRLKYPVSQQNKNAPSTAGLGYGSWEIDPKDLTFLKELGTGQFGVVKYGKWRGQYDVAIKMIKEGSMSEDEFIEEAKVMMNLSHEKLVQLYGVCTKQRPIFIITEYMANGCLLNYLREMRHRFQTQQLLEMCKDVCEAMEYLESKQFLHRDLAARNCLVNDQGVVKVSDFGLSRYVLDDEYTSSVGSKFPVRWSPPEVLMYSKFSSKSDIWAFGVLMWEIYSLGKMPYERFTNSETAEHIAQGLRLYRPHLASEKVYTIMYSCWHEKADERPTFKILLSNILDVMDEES
T2 sequence (Q06187 whole entry C481S): as the sequence (Q06187 whole entry) above, with C481S counted along it

`Nc1ncnc2c1c(-c1ccc(Oc3ccccc3)cc1)nn2C1CCN(CCCCCOCCOc2ccc3c(c2)CN(C2CCC(=O)NC2=O)C3=O)CC1` (centres unmarked) [Compound 1] showed a Tumor inhibition rate (OCI-LY10 tumor) of 175%, a DC50 (BTK protein) of 2.3 nM and a Papp A→B at 90 min [1, 3] of 5.55 ×10⁻⁶ cm/s. It also gave a Papp A→B at 90 min [1, 4] of 5.16 ×10⁻⁶ cm/s, a Papp A→B at 90 min [1, 5] of 5.35 ×10⁻⁶ cm/s and a Papp B→A at 90 min [1, 3] of 7.18 ×10⁻⁶ cm/s. For the same molecule, the Papp B→A at 90 min [1, 4] was 6.99 ×10⁻⁶ cm/s, the Papp B→A at 90 min [1, 5] was 7.09 ×10⁻⁶ cm/s and the efflux ratio at 90 min [1] was 1.32. For the same molecule, the pIC50 [2, 6] was 8.15 and the DC50 (BTK-C481S mutant protein) was 9.9 nM.
In the case of `Nc1ncnc2c1c(-c1ccc(Oc3ccccc3)cc1)nn2C1CCN(CCOCCCCCOc2ccc3c(c2)CN(C2CCC(=O)NC2=O)C3=O)CC1` (centres unmarked) [Compound 2], the Tumor inhibition rate (OCI-LY10 tumor) was 189%, the DC50 (BTK protein) was 1.5 nM and the Papp A→B at 90 min [1, 3] was 2.37 ×10⁻⁶ cm/s. The Papp A→B at 90 min [1, 4] was 2.26 ×10⁻⁶ cm/s, the Papp A→B at 90 min [1, 5] was 2.32 ×10⁻⁶ cm/s and the Papp B→A at 90 min [1, 3] was 2.73 ×10⁻⁶ cm/s. For the same molecule, the Papp B→A at 90 min [1, 4] was 2.75 ×10⁻⁶ cm/s, the Papp B→A at 90 min [1, 5] was 2.74 ×10⁻⁶ cm/s and the efflux ratio at 90 min [1] was 1.18. For the same molecule, the pIC50 [2, 6] was 7.75 and the DC50 (BTK-C481S mutant protein) was 3.1 nM.
`Nc1ncnc2c1c(-c1ccc(Oc3ccccc3)cc1)nn2C1CCN(CCOCCOCCNc2ccc3c(c2)CN(C2CCC(=O)NC2=O)C3=O)CC1` (centres unmarked) [Control compound 1] gave a Papp A→B at 90 min [1, 3] of 1.07 ×10⁻⁶ cm/s, a Papp A→B at 90 min [1, 4] of 1.04 ×10⁻⁶ cm/s and a Papp A→B at 90 min [1, 5] of 1.05 ×10⁻⁶ cm/s. The Papp B→A at 90 min [1, 3] was 30.2 ×10⁻⁶ cm/s, the Papp B→A at 90 min [1, 4] was 39.4 ×10⁻⁶ cm/s and the Papp B→A at 90 min [1, 5] was 34.8 ×10⁻⁶ cm/s. The efflux ratio at 90 min [1] was 33.
`Nc1ncnc2c1c(-c1ccc(Oc3ccccc3)cc1)nn2C1CCCN(CCOCCOCCOCCOCCNc2cccc3c2C(=O)N(C2CCC(=O)NC2=O)C3=O)C1` (centres unmarked) [Control compound 2] gave a Papp A→B at 90 min [1, 3] of 1.02 ×10⁻⁶ cm/s, a Papp A→B at 90 min [1, 4] of 1 ×10⁻⁶ cm/s and a Papp A→B at 90 min [1, 5] of 1.01 ×10⁻⁶ cm/s. The Papp B→A at 90 min [1, 3] was 18.1 ×10⁻⁶ cm/s, the Papp B→A at 90 min [1, 4] was 18.6 ×10⁻⁶ cm/s and the Papp B→A at 90 min [1, 5] was 18.4 ×10⁻⁶ cm/s. It also gave an efflux ratio at 90 min [1] of 18.1.
Molecule `Nc1ncnc2c1c(-c1ccc(Oc3ccccc3)cc1)nn2C1CCN(CCOCCOCCNc2ccc3c(c2)C(=O)N(C2CCC(=O)NC2=O)C3=O)CC1` (centres unmarked) [Control compound 3] has a Papp A→B at 90 min [1, 3] of 2.14 ×10⁻⁶ cm/s, a Papp A→B at 90 min [1, 4] of 2.16 ×10⁻⁶ cm/s and a Papp A→B at 90 min [1, 5] of 2.15 ×10⁻⁶ cm/s. The Papp B→A at 90 min [1, 3] was 33.5 ×10⁻⁶ cm/s, the Papp B→A at 90 min [1, 4] was 34.8 ×10⁻⁶ cm/s and the Papp B→A at 90 min [1, 5] was 34.1 ×10⁻⁶ cm/s. The efflux ratio at 90 min [1] was 15.9.
`C=CC(=O)N1CCC[C@@H](n2nc(-c3ccc(Oc4ccccc4)cc3)c3c(N)ncnc32)C1` [Ibrutinib] gave a pIC50 ([2]; TMD8, 72 h) of 6.90.
